The values that follow come from patent publication US8980877B2, “Spirocyclic derivatives as histone deacetylase inhibitors” (DAC S.R.L., priority 2008, dated 2015).

Experiment [1] deals with HDAC (nuclear fraction of Hela cells). Nature of the experiment: Assay of enzyme inhibition of HDAC (BIOMOL Kit). The experiment is classed as biochemical. The note with it: substrate 200 μM, 15 min at RT, fluorescence. As to the method: The in-vitro activity of HDAC inhibitors was assayed using a BIOMOL Kit, according to the instructions from the manufacturer (Biomolecular Research Laborator). 15 μl of 30× diluted nuclear fraction of Hela cells, was diluted to 50 μl with the assay buffer containing the HDAC inhibitor and the substrate (lysine with acetylated amino group on the side chain) at a concentration of 200 μM. The samples were incubated for 15 min at RT and then exposed to a developer (10 min at RT). In this last step a fluorophore was produced, whose fluorescence was measured using an excitation wavelength of 355 nm and an emission at 460 nm. The IC50 was calculated using GraphPad Software.

Another experiment has as its system K562 cells. Nature of the experiment: Cell growth, CellTiter-Glo Luminescent Cell Viability Assay, K562. The experiment is classed as cell-based. The following applies: Homo sapiens, 72 h incubation, read-out: K562 (antiproliferative assay IC50). The source says:
(§1) CellTiter-Glo® Luminescent Cell Viability Assay (Promega) is a homogeneous method of determining the number of viable cells in culture based on quantitation of the present ATP, which indicates the presence of metabolically active cells. The homogeneous assay procedure involves addition of a single reagent (CellTiter-Glo® Reagent) directly to the cells, which leads to cell lysis and generation of a luminescent signal proportional to the amount of the ATP and the number of cells present in culture. The assay relies on the properties of a proprietary thermostable luciferase (Ultra-Glo® recombinant luciferase), which generates a luminescent signal.
(§2) K562, A549, and HCT-116 cells, in exponential growth, were incubated for 72 h with different concentrations of the inhibitors. After 72 h, a volume of CellTiter-Glo® Reagent equal to the volume of cell culture medium was added. The content was mixed for 2 min to induce cell lysis. The luminescence was recorded after further 10 min at RT in order to obtain a stable luminescent signal.
(§3) The IC50 was calculated using GraphPad Software.
In general terms: In ATP-based viability assays light output follows the ATP content of the culture.

A further experiment deals with A549 cells. Nature of the experiment: Cell growth, CellTiter-Glo Luminescent Cell Viability Assay, A549. The experiment is classed as cell-based. The following applies: Homo sapiens, 72 h incubation, read-out: A549 (antiproliferative assay IC50).
Excerpt: as §1, §2, §3

For another experiment, the system named is HCT-116 cells. Nature of the experiment: Cell growth, CellTiter-Glo Luminescent Cell Viability Assay, HCT-116. The note with it: Homo sapiens, 72 h incubation, read-out: HCT116 (antiproliferative assay IC50). The experiment is classed as cell-based.
Excerpt: as §1, §2, §3

Bounds are passed on as bounds.

As a reminder, the IC50 is the concentration that gives 50% inhibition.

In the case of `O=C(/C=C/c1ccc2c(c1)C(=O)CC1(CCN(Cc3ccccc3)C1)O2)NO` (racemic) [Example 2, (±)-(E)-3-[1′-Benzyl-4-oxo-spiro(chromane-2,3′-pyrrolidine)-6-yl]-N-hydroxy-acrylamide], the IC50 in experiment [1] was no more than 100 nM.

Molecule `O=C(/C=C/c1ccc2c(c1)C(=O)CC1(CCN(CCc3ccccc3)C1)O2)NO` (racemic) [Example 9, (±)-(E)-3-[1′-(2-Phenyl-ethyl)-4-oxo-spiro(chromane-2,3′-pyrrolidine)-6-yl]-N-hydroxy-acrylamide] displayed an IC50 in experiment [1] of no more than 100 nM.

Turning to `Cn1cc(CN2CCC3(CC(=O)c4cc(/C=C/C(=O)NO)ccc4O3)C2)c2ccccc21` (racemic) [Example 10, (±)-(E)-3-[1′(1-Methyl-1H-indol-3-ylmethyl)-4-oxo-spiro(chromane-2,3′-pyrrolidine)-6-yl]-N-hydroxy-acrylamide], the IC50 in experiment [1] was no more than 100 nM.

In turn, `O=C(/C=C/c1ccc2c(c1)C(=O)CC1(CCCN(Cc3ccccc3)C1)O2)NO` (racemic) [Example 13, (±)-(E)-3-[1′Benzyl-4-oxo-spiro(chromane-2,3′-piperidine)-6-yl]-N-hydroxy-acrylamide] displayed an IC50 in experiment [1] of no more than 100 nM.

As for `O=C(/C=C/c1ccc2c(c1)C(=O)CC1(CCCN(Cc3ccc(F)cc3)C1)O2)NO` (racemic) [Example 19, (±)-(E)-3-[1′(4-Fluoro-benzyl)-4-oxo-spiro(chromane-2,3′-piperidine)-6-yl]-N-hydroxy-acrylamide], the IC50 in experiment [1] is no more than 100 nM.

As for `O=C(/C=C/c1ccc2c(c1)C(=O)CC1(CCCN(CCc3ccccc3)C1)O2)NO` (racemic) [Example 20, (±)-(E)-3-[1′-(2-Phenyl-ethyl)-4-oxo-spiro(chromane-2,3′-piperidine)-6-yl]-N-hydroxy-acrylamide], the IC50 in experiment [1] was no more than 100 nM.

The molecule `O=C(/C=C/c1ccc2c(c1)C(=O)CC1(CCCN(Cc3ccccc3)CC1)O2)NO` (racemic) [Example 23, (±)-(E)-3-[1′-Benzyl-4-oxo-spiro(chromane-2,4′-azepane)-6-yl]-N-hydroxy-acrylamide] had an IC50 in experiment [1] of no more than 100 nM.

Molecule `O=C(/C=C/c1ccc2c(c1)C(=O)CC1(CCCN(CCc3ccccc3)CC1)O2)NO` (racemic) [Example 28, (±)-(E)-3-[1′(2-Phenyl-ethyl)-4-oxo-spiro(chromane-2,4′-azepane)-6-yl]-N-hydroxy-acrylamide] came in with an IC50 in experiment [1] of no more than 100 nM.

In the case of `O=C(/C=C/c1ccc2c(c1)C(=O)NC1(CCCN(Cc3ccccc3)C1)O2)NO` (racemic) [Example 40, (±)-(E)-3-{1′-Benzyl-3,4-dihydro-4-oxo-spiro[2H-(1,3)-benzoxazine-2,3′-piperidin]-6-yl}-N-hydroxy-acrylamide], the IC50 in experiment [1] was no more than 100 nM.

As to `O=C(/C=C/c1ccc2c(c1)C(=O)NC1(CCCN(CCc3ccccc3)C1)O2)NO` (racemic) [Example 43, (±)-(E)-3-{1′-(2-Phenyl-ethyl)-3,4-dihydro-4-oxo-spiro[2H-(1,3)-benzoxazine-2,3′-piperidin]-6-yl}-N-hydroxy-acrylamide], the IC50 in experiment [1] was no more than 100 nM.

For `O=C(/C=C/c1ccc2c(c1)C(=O)CC1(CCCN(C3CCCC3)C1)O2)NO` (racemic) [Example 50, (±)-(E)-3-[1′-Cyclopentyl-4-oxo-spiro(chromane-2,3′-piperidine)-6-yl]-N-hydroxy-acrylamide], the IC50 in experiment [1] was no more than 100 nM.

As to `O=C(/C=C/c1ccc2c(c1)C(=O)CC1(CCCN(Cc3ccccc3)C1)O2)NO` (single isomer, unassigned; (+)) [Example 18, (+)-(E)-3-[1′-Benzyl-4-oxo-spiro(chromane-2,3′-piperidine)-6-yl]-N-hydroxy-acrylamide], the IC50 in experiment [1] lay in the range of 100 to 1000 nM.

In the case of `O=C(/C=C/c1ccc2c(c1)C(=O)CC1(CCN(Cc3ccccc3)C1)O2)NO` (single isomer, unassigned; (-)) [Example 3, (−)-(E)-3-[1′-Benzyl-4-oxo-spiro(chromane-2,3′-pyrrolidine)-6-yl]-N-hydroxy-acrylamide], in experiment [1], the IC50 is no more than 100 nM.

In experiment [1], `O=C(/C=C/c1ccc2c(c1)C(=O)CC1(CCCN(Cc3ccccc3)C1)O2)NO` (single isomer, unassigned; (-)) [Example 17, (−)-(E)-3-[1′-Benzyl-4-oxo-spiro(chromane-2,3′-piperidine)-6-yl]-N-hydroxy-acrylamide] returned an IC50 of no more than 100 nM.

On to `O=C(/C=C/c1ccc2c(c1)C(=O)CC1(CN(Cc3ccccc3)C1)O2)NO` [Example 31, (E)-3-[1′-Benzyl-4-oxo-spiro(chromane-2,3′-azetidine)-6-yl]-N-hydroxy-acrylamide], for which, in experiment [1], the IC50 was no more than 100 nM.

`O=C(/C=C/c1ccc2c(c1)C(=O)CC1(CN(C(=O)c3ccccc3)C1)O2)NO` [Example 37, (E)-3-[1′-Benzoyl-4-oxo-spiro(chromane-2,3′-azetidine)-6-yl]-N-hydroxy-acrylamide] came in with an IC50 in experiment [1] of no more than 100 nM.

In turn, `Cn1cc(CN2CC3(CC(=O)c4cc(/C=C/C(=O)NO)ccc4O3)C2)c2ccccc21` [Example 44, (E)-3-[1′-(1-Methyl-1H-indol-3-ylmethyl)-4-oxo-spiro(chromane-2,3′-azetidine)-6-yl]-N-hydroxy-acrylamide] displayed an IC50 in experiment [1] of no more than 100 nM.

On to `CO/N=C1/CC2(CCCN(Cc3ccc(F)cc3)C2)Oc2ccc(/C=C/C(=O)NO)cc21` (centres unmarked) [Example 53, (E)-3-(1′-(4-Fluorobenzyl)-4-(methoxyimino)spiro[chroman-2,3′-piperidine]-6-yl)-N-hydroxyacrylamide], for which the IC50 in experiment [1] was no less than 1000 nM; in the experiment on K562 cells, 1000 to 3000 nM; with A549 cells, no less than 3000 nM; in the experiment with HCT-116 cells, 1000 to 3000 nM.

In experiment [1], `O=C(/C=C/c1ccc2c(c1)C(=NO)CC1(CCCN(C3CCCC3)C1)O2)NO` (centres unmarked) [Example 54, (E)-3-(1′-Cyclopentyl-4-(hydroxyimino)spiro[chroman-2,3′-piperidine]-6-yl)-N-hydroxyacrylamide] displayed an IC50 of no more than 100 nM.

For `O=C(/C=C/c1ccc2c(c1)/C(=N\OCc1ccccc1)CC1(CCCN(CCc3ccccc3)C1)O2)NO` (centres unmarked) [Example 55, (E)-3-(4-(Benzyloxyimino)-1′-phenethylspiro[chroman-2,3′-piperidine]-6-yl)-N-hydroxyacrylamide], the IC50 is no less than 1000 nM in experiment [1], no more than 1000 nM with K562 cells, 1000 to 3000 nM in the experiment with A549 cells and no more than 1000 nM in the experiment on HCT-116 cells.
